According to ChEMBL document CHEMBL3991601, “The target landscape of clinical kinase drugs” (Science, 2017):
The source made the active and inactive calls.

Legend:
[1] = target: Adenylate kinase 2, mitochondrial (Homo sapiens, UniProt P54819)
[2] = target: Bone morphogenetic protein receptor type-1A (Homo sapiens, UniProt P36894)
[3] = target: Midasin (Homo sapiens, UniProt Q9NU22)
[4] = target: T1, Serine/threonine-protein kinase TAO1 (Homo sapiens, UniProt Q7L7X3)
T1 sequence (Q7L7X3 whole entry): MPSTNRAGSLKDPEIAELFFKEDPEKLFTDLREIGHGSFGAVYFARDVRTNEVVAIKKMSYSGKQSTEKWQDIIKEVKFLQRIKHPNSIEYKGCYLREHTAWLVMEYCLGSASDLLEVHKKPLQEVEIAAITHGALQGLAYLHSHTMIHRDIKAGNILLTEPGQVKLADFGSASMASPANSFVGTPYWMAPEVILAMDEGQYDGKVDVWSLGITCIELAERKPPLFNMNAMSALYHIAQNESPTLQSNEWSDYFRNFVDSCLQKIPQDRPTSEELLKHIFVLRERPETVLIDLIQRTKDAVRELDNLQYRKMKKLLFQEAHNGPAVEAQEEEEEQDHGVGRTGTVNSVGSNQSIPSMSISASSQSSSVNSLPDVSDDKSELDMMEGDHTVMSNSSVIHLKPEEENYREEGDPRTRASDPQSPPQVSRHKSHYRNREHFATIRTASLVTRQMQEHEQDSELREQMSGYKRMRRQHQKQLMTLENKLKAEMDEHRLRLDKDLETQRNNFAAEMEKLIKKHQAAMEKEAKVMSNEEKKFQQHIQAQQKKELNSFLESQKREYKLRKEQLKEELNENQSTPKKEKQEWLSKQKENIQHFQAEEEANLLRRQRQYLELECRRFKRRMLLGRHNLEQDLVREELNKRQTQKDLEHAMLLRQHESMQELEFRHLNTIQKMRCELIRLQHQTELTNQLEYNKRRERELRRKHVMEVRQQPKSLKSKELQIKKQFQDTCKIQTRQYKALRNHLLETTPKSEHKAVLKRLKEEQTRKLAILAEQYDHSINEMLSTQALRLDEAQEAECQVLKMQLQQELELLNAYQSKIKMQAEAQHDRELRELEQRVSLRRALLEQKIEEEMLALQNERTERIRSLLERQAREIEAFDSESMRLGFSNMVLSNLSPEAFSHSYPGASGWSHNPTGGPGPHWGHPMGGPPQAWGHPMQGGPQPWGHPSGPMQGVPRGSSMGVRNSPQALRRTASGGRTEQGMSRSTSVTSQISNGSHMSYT

[5] = target: T2, Serine/threonine-protein kinase TBK1 (Homo sapiens, UniProt Q9UHD2)
T2 sequence (Q9UHD2 whole entry): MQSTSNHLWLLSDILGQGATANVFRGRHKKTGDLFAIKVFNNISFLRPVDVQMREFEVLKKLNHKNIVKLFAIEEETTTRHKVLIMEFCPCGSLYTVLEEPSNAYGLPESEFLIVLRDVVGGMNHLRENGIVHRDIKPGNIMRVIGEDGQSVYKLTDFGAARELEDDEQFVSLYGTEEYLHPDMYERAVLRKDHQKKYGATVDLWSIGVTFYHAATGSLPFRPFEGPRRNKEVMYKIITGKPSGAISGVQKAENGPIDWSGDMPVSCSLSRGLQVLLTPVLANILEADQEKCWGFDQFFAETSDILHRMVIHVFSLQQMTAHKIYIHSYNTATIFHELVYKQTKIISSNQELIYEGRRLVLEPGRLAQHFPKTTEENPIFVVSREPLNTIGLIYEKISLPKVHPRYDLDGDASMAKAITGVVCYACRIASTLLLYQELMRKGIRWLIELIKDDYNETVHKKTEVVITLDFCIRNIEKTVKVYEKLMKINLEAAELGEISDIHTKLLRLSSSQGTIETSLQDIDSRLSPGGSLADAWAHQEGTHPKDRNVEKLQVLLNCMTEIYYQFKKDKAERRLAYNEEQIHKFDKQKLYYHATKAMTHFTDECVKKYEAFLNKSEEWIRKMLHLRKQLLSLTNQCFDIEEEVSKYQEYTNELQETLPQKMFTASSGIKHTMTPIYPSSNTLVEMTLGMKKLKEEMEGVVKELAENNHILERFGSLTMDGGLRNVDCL

[6] = target: T3, Peroxisomal acyl-coenzyme A oxidase 1 (Homo sapiens, UniProt Q15067)
T3 sequence (Q15067 whole entry): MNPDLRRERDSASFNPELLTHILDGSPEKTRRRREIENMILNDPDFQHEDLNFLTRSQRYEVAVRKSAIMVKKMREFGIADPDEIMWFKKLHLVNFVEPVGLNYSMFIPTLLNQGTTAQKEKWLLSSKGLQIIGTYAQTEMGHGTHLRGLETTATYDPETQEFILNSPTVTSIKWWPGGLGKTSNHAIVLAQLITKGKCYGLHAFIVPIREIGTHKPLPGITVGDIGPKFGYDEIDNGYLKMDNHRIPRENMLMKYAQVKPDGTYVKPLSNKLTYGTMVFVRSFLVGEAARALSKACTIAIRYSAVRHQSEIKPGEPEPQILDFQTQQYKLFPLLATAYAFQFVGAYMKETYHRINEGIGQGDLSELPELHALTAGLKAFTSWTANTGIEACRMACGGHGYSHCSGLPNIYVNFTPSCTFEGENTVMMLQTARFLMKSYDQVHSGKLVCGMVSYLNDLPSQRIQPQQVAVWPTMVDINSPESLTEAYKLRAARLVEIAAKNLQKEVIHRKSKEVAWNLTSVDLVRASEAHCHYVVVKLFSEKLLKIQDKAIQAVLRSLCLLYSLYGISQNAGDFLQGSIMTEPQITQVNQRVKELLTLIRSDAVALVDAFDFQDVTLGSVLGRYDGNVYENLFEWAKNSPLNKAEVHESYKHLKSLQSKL

[7] = target: T4, EKC/KEOPS complex subunit TP53RK (Homo sapiens, UniProt Q96S44)
T4 sequence (Q96S44 whole entry): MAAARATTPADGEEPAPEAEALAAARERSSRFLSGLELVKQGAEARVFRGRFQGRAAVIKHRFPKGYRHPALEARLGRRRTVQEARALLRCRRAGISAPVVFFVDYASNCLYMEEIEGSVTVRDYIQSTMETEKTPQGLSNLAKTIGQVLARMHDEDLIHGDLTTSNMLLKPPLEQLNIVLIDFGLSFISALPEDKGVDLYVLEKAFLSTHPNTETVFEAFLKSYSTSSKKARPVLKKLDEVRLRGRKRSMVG
Further: in the data inactive means no Kd found up to 30 µM.

Sequence of Bone morphogenetic protein receptor type-1A (P36894 whole entry): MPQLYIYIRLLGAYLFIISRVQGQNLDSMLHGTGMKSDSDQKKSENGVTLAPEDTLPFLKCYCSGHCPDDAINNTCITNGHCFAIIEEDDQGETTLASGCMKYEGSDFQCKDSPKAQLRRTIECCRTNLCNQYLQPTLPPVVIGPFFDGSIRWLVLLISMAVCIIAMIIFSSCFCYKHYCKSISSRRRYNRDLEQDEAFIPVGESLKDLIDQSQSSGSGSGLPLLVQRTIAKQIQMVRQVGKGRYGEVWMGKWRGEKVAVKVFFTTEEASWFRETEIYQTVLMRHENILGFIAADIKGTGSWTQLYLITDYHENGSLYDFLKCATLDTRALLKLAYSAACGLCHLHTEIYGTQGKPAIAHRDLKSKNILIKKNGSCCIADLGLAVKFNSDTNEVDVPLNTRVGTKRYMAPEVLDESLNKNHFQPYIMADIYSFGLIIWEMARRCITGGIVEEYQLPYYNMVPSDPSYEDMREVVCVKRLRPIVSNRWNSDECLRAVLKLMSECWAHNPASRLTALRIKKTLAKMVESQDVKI

Row | Compound | Kd [1] | Kd [2] | Kd [3] | Kd [4] | Kd [5] | Kd [6] | Kd [7]
1 | Cn1cc(-c2ccc3nnc(C(F)(F)c4ccc5ncccc5c4)n3n2)cn1 [JNJ-38877605] | > 30 µM (inactive) | > 30 µM (inactive) | > 30 µM (inactive) | > 30 µM (inactive) | > 30 µM (inactive) | > 30 µM (inactive) | > 30 µM (inactive)
2 | N[C@@H]1CCCN(c2c(/C=C3\SC(=O)NC3=O)cccc2-c2ccccc2)C1 | > 30 µM (inactive) | > 30 µM (inactive) | > 30 µM (inactive) | > 30 µM (inactive) | > 30 µM (inactive) | > 30 µM (inactive) | > 30 µM (inactive)
3 | Cn1ncc(Cl)c1-c1cc(C(=O)N[C@H](CN)Cc2cccc(F)c2)sc1Cl [AFURESERTIB] | > 30 µM (inactive) | > 30 µM (inactive) | > 30 µM (inactive) | > 30 µM (inactive) | > 30 µM (inactive) | > 30 µM (inactive) | > 30 µM (inactive)
4 | Cc1cc(-c2cc(O)ccc2Cl)cc2nnc(Nc3ccc(OCCN4CCCC4)cc3)nc12 | > 30 µM (inactive) | > 30 µM (inactive) | > 30 µM (inactive) | > 30 µM (inactive) | > 30 µM (inactive) | > 30 µM (inactive) | > 30 µM (inactive)
5 | O=C(c1ccc(F)c(F)c1Nc1ccc(I)cc1F)N1CC(O)([C@@H]2CCCCN2)C1 [COBIMETINIB] | > 30 µM (inactive) | > 30 µM (inactive) | > 30 µM (inactive) | > 30 µM (inactive) | > 30 µM (inactive) | > 30 µM (inactive) | > 30 µM (inactive)
6 | CN1CCC(COc2cnc(-c3cccc(Cn4nc(-c5cccc(C#N)c5)ccc4=O)c3)nc2)CC1 [TEPOTINIB] | > 30 µM (inactive) | > 30 µM (inactive) | > 30 µM (inactive) | > 30 µM (inactive) | > 30 µM (inactive) | > 30 µM (inactive) | > 30 µM (inactive)
7 | CO[C@H]1C[C@@H]2CC[C@@H](C)[C@@](O)(O2)C(=O)C(=O)N2CCCC[C@H]2C(=O)O[C@H]([C@H](C)C[C@@H]2CC[C@@H](OCCO)[C@H](OC)C2)CC(=O)[C@H](C)/C=C(\C)[C@@H](O)[C@@H](OC)C(=O)[C@H](C)C[C@H](C)/C=C/C=C/C=C/1C [EVEROLIMUS] | > 30 µM (inactive) | > 30 µM (inactive) | > 30 µM (inactive) | > 30 µM (inactive) | > 30 µM (inactive) | > 30 µM (inactive) | > 30 µM (inactive)
8 | COC(=O)[C@@]1(O)C[C@H]2O[C@]1(C)n1c3ccccc3c3c4c(c5c6ccccc6n2c5c31)C(=O)NC4 [K-252A] | > 30 µM (inactive) | > 30 µM (inactive) | > 30 µM (inactive) | 18.8 µM (active) | 1.16 µM (active) | > 30 µM (inactive) | 3.84 µM (active)
9 | Cc1ccc(NC(=O)c2ccc(CN3CC[C@H](N(C)C)C3)c(C(F)(F)F)c2)cc1Nc1nccc(-c2cncnc2)n1 [BAFETINIB] | > 30 µM (inactive) | > 30 µM (inactive) | > 30 µM (inactive) | > 30 µM (inactive) | > 30 µM (inactive) | > 30 µM (inactive) | > 30 µM (inactive)
10 | COc1ccc(-c2ccc3c(N4CCOC[C@@H]4C)nc(N4CCOC[C@@H]4C)nc3n2)cc1CO [AZD-8055] | > 30 µM (inactive) | > 30 µM (inactive) | > 30 µM (inactive) | > 30 µM (inactive) | > 30 µM (inactive) | > 30 µM (inactive) | > 30 µM (inactive)

The next lines start with the values.

Row | Kd [1] | Kd [2] | Kd [3] | Kd [4] | Kd [5] | Kd [6] | Kd [7] | Compound
11 | > 30 µM (inactive) | > 30 µM (inactive) | > 30 µM (inactive) | > 30 µM (inactive) | > 30 µM (inactive) | > 30 µM (inactive) | > 30 µM (inactive) | CNC(=O)CN1CCC(Oc2cc3c(Nc4cccc(Cl)c4F)ncnc3cc2OC)CC1 [SAPITINIB]
12 | > 30 µM (inactive) | > 30 µM (inactive) | > 30 µM (inactive) | > 30 µM (inactive) | > 30 µM (inactive) | > 30 µM (inactive) | > 30 µM (inactive) | CC[C@@H]1C(=O)N(C)c2cnc(Nc3ccc(C(=O)N[C@H]4CC[C@H](N5CCN(CC6CC6)CC5)CC4)cc3OC)nc2N1C(C)C [VOLASERTIB]
13 | > 30 µM (inactive) | > 30 µM (inactive) | > 30 µM (inactive) | > 30 µM (inactive) | > 30 µM (inactive) | > 30 µM (inactive) | > 30 µM (inactive) | C[C@@H]1CN(Cc2ccc(F)cc2)[C@@H](C)CN1C(=O)c1cc2c(C(=O)C(=O)N(C)C)cn(C)c2cc1Cl [TALMAPIMOD]
14 | > 30 µM (inactive) | > 30 µM (inactive) | > 30 µM (inactive) | > 30 µM (inactive) | > 30 µM (inactive) | > 30 µM (inactive) | > 30 µM (inactive) | Cn1cc(-c2ccc(F)c(C(F)(F)F)c2)nc1C1CCN(c2ncnc3[nH]ncc23)CC1 [LY-2584702]
15 | > 30 µM (inactive) | > 30 µM (inactive) | > 30 µM (inactive) | > 30 µM (inactive) | > 30 µM (inactive) | > 30 µM (inactive) | > 30 µM (inactive) | COc1cc2nccc(Oc3ccc(NC(=O)Nc4cc(C)on4)c(Cl)c3)c2cc1OC [TIVOZANIB]
16 | > 30 µM (inactive) | > 30 µM (inactive) | > 30 µM (inactive) | 0.388 µM (active) | > 30 µM (inactive) | > 30 µM (inactive) | > 30 µM (inactive) | CC(C)Nc1cc(-c2c[nH]c(C(=O)N[C@H](CO)c3cccc(Cl)c3)c2)c(Cl)cn1 [ULIXERTINIB]
17 | > 30 µM (inactive) | > 30 µM (inactive) | > 30 µM (inactive) | > 30 µM (inactive) | > 30 µM (inactive) | > 30 µM (inactive) | > 30 µM (inactive) | CNC(=O)c1ccc(C)c(-n2c(C)cc(OCc3ccc(F)cc3F)c(Br)c2=O)c1 [PH-797804]
